{
  "source": "patent US20150224089A1",
  "about": "“COMBINATIONS OF IKKi/TBK1 INHIBITORS WITH BETA ADRENERGIC AGONISTS OR SYMPATHETIC NERVOUS SYSTEM ACTIVATORS” (THE REGENTS OF THE UNIVERSITY OF MICHIGAN, priority 2014, published 2015)",
  "key": {"3T3-L1 adipocytes [1]": {"system": "3T3-L1 adipocytes", "assay": "cAMP levels in 3T3-L1 adipocytes", "assay_type": "cell-based", "description": "(§1) (A) Glycerol release from 3T3-L1 adipocytes treated with or without different concentrations of TNFα as indicated for 24 hr followed by treatment with or without 10 μM ISO or 50 μM FSK. (B) cAMP levels from 3T3-L1 adipocytes treated with or without 100 ng/ml TNFα for 24 hr followed by treatment with or without 10 μM ISO or 50 μM FSK in the presence or absence of pretreatment of 50 μM Amlexanox (Am). (C) cAMP levels from 3T3-L1 adipocytes treated with or without 100 ng/ml TNFα for 24 hr followed by treatment with or without 50 μM FSK in the presence or absence of pretreatment of 1 μM CAY10576 (CAY). (D) Immunoblots of whole cell lysates from 3T3-L1 adipocytes treated with or without different concentrations of TNFα as same as FIG. 2A for 24 hr followed by treatment with or without 10 μM ISO or 50 μM FSK. Results were replicated in multiple experiments. ‘[’ indicates total HSL. ‘n.s.’ represents non-specific band. Arrow indicates CGI-58. (E) Immunoblots of whole cell lysates from 3T3-L1 adipocytes treated with or without 50 ng/ml TNFα or 100 μg/ml poly (I:C) for 24 hr followed by treatment with or without 10 μM ISO for 15 min in the presence or absence of pretreatment with increasing concentrations (0, 10, 50, and 200 μM) of amlexanox for 30 min.\n(A) cAMP levels from 3T3-L1 adipocytes expressing empty vector, Flag-IKKε, or Flag-TBK1 treated with or without 50 μM FSK, 250 μM IBMX, or together for 15 min. (B) cAMP levels from 3T3-L1 adipocytes expressing empty vector, Flag-IKKε, or Flag-TBK1 treated with or without 10 μM ISO or 50 μM FSK together with or without 10 μM Zardaverine (Zarda) for 15 min. (C) 32P phospho-image of in vitro kinase reaction using either immunoprecipitated HA-PDE3B from HEK293T cells or 1 μg MBP (myelin basic protein) as a substrate with recombinant kinases as indicated. (D) Immunoblots of immunoprecipitation with anti-HA antibodies followed by treatment with or without CIP (top panel) and whole cell lysates (bottom panel) from Cos-1 cells co-expressing HA-PDE3B with Flag-IKKε/TBK1 or Flag-IKKε/TBK1 K38A. D.E. stands for dark exposure and L.E. stands for light exposure. (E) Immunoblots of GST-14-3-3 pulldown from HEK293T cells co-expressing HA-PDE3B with Flag-TBK1 or Flag-TBK1 K38A.\nObesity is accompanied by infiltration of proinflammatory macrophages into adipose tissue; these cells secrete inflammatory cytokines, such as TNFα, which generate insulin resistance by stimulating catabolic pathways (Hotamisligil, 2006; Lumeng et al., 2007; Ye and Keller, 2010; Ouchi et al., 2011; herein incorporated by reference in their entireties). Although TNFα is known to increase lipolysis in adipocytes (Zhang et al., 2002; Souza et al., 2003; Green et al., 2004; Plomgaard et al., 2008; herein incorporated by reference in their entireties), there is also evidence of a counterinflammatory response in obesity that may serve to repress energy expenditure (Gregor and Hotamisligil, 2011; Saltiel, 2012; Calay and Hotamisligil, 2013; Reilly et al., 2013; herein incorporated by reference in their entireties). Experiments were conducted during development of embodiments of the present invention using TNFα to model the inflammatory milieu of obese adipose tissue in cell culture to determine whether the cytokine might also regulate β-adrenergic signaling in this context. While short-term treatment with TNFα augmented the increase in cAMP produced by forskolin treatment, this effect declined after 12 hr. […] Thus, the catabolic effects of the proinflammatory cytokine TNFα in adipocytes are transient and followed by an inhibitory phase.\nTreatment of 3T3-L1 adipocytes with TNFα for 24 hr induced the expression of IKKε and increased TBK1 phosphorylation at the active site in a manner that was dependent on the activity of IKKβ and the NFκB pathway (Reilly et al., 2013; herein incorporated by reference in its entirety). […]"}, "diet-induced obese mice": {"system": "diet-induced obese mice", "assay": "Serum FFA and glycerol after CL-316,243 injection in ND- or HFD-fed mice", "assay_type": "in vivo", "settings": "normal diet mice, vehicle and amlexanox-treated; 15 min after IP CL-316,243 injection", "description": "(A) Fold increase in serum FFA (left panel) and glycerol (right panel) levels 15 min after CL-316,243 injection in ND- or HFD-fed mice treated with amlexanox or vehicle control for 4 days. (B) Glycerol release from ex vivo epididymal (left panel) and inguinal (right panel) WATs after 1 hr pretreatment with amlexanox or vehicle. CL-316,243 treatment was started at time zero. (C) Immunoblots in inguinal WAT lysates from FIG. 5B after 60 min of CL-316,243 treatment. (D) cAMP levels in epididymal WAT 20 min after CL-316,243 (CL) or saline control injection in HFD-fed mice treated with amlexanox or vehicle control for 4 days. (E) Immunoblots in epididymal WAT 5 min after CL-316,243 or saline control injection in HFD-fed mice treated with amlexanox or vehicle control for 4 days. (F) Relative oxygen comsumption of mice in each treatment group.\nTo test the functional importance of the noncanonical IKKs in maintaining energy balance in vivo, experiments were conducted during development of embodiments of the present invention to investigate whether the administration of a selective inhibitor of IKKε and TBK1, amlexanox, can reverse diet-induced catecholamine resistance in rodentsMice were fed a high fat or normal diet, treated them with amlexanox by oral gavage for 4 days (prior to the point when weight loss is seen), and then gave a single intraperitoneal (IP) injection of the β3-adrenergic agonist CL-316,243. Injection of CL-316,243 stimulated a threefold increase in serum FFA and glycerol levels in both vehicle and amlexanox-treated mice on normal diet (ND)."}, "3T3-L1 adipocytes [2]": {"system": "3T3-L1 adipocytes", "assay": "Glycerol release (lipolysis) from 3T3-L1 adipocytes", "assay_type": "cell-based", "settings": "for lipolysis (glycerol release): empty vector-expressing cells, 10 μM", "description": "(§2) (A) Fold increase in Ucp1 expression in 3T3-L1 adipocytes expressing empty vector, Flag-IKKε, or Flag-IKKε K38A following treatment with or without 10 μM ISO (black bars) or 10 μM CL-316,243 (CL, gray bars) for 4 hr. (B) Glycerol release from 3T3-L1 adipocytes expressing empty vector (white bars), Flag-IKKε (black bars), or Flag-IKKε K38A (gray bars) treated with or without 10 μM ISO or 10 μM CL. (C) Immunoblots of whole cell lysates from FIG. 1B. Results were replicated in triplicate. D.E. stands for dark exposure and L.E. stands for light exposure. (D) Immunoblots of whole cell lysates from 3T3-L1 adipocytes expressing empty vector or Flag-IKKε treated with or without 50 μM FSK for 15 min. (E) cAMP levels from 3T3-L1 adipocytes expressing empty vector, Flag-IKKε, or Flag-IKKε K38A treated with or without 10 μM ISO or 50 μM FSK for 15 min.\nas §1\nThe obesity-dependent increase was modeled in the noncanonical IKKs by overexpressing IKKε in 3T3-L1 adipocytes, followed by assay of glycerol release in response to ISO or CL-316,243. […] Overexpression of TBK1 reduced phosphorylation of HSL in response to isoproterenol or the adenylyl cyclase activator, forskolin (FIG. 1). Identical results were obtained when IKKε was overexpressed in 3T3-L1 adipocytes stimulated with forskolin (FIG. 1D), as detected by western blotting with an anti-phospho-PKA substrate motif antibody. […]"}, "3T3-L1 adipocytes [3]": {"system": "3T3-L1 adipocytes", "assay": "Ucp1 gene expression in 3T3-L1 adipocytes", "assay_type": "cell-based", "settings": "empty vector-expressing cells; 10 μM for 4 hr; treated relative to control samples", "description": "as §2\nSympathetic activation of adipose tissue is involved in maintaining energy balance by stimulating lipolysis and fat oxidation (Coppack et al., 1994; Langin, 2006; Festuccia et al., 2011; herein incorporated by reference in their entireties). Activation of β-adrenergic signaling by either β-adrenergic agonists or cold exposure in white and brown adipose tissue initiates a cascade of events through cyclic AMP (cAMP), culminating in the transcriptional upregulation of Ucp1, which results in increased proton leak and energy expenditure (Himms-Hagen et al., 2000; Cao et al., 2004; Yehuda-Shnaidman et al., 2010; herein incorporated by reference in their entireties). […] This effect was further analyzed by overexpressing IKKε in 3T3-L1 adipocytes and examining Ucp1 gene expression after treatment with the non-selective β-adrenergic agonist, isoproterenol (ISO), or the β3-adrenergic agonist, CL-316,243. Fold difference in Ucp1 gene expression was calculated by normalization of relative Ucp1 mRNA levels in treated relative to control samples. […] The induction of Ucp1 gene expression in response to ISO or CL-316,243 was blunted when WT IKKε was overexpressed in these cells. […]"}, "3T3-L1 adipocytes [4]": {"system": "3T3-L1 adipocytes", "assay": "Immunoblots of β-adrenergic/PKA signaling (HSL, perilipin, PKA substrate, p38 phosphorylation) in 3T3-L1 adipocytes", "assay_type": "cell-based", "settings": "treatment with Poly (I:C)", "description": "as §1, with “Results were replicated in multiple experiments. ‘[’ indicates total HSL. ‘n.s.’ represents non-specific band.” left out\nExperiments were conducted during development of embodiments of the present invention to determine whether the repression of β-adrenergic sensitivity produced by longer-term treatment with TNFα is due to increased activity of the noncanonical IKKs."}},
  "data": [
    {"compound": "COc1cc2ncn(-c3cc(OCc4ccccc4S(C)(=O)=O)c(C#N)s3)c2cc1OC", "note": "[CAY10576]", "values": [
      {"measurement": "rescue of TNFα-decreased forskolin-stimulated cAMP production", "setting": "3T3-L1 adipocytes [1]; preincubation with 1 μM CAY10576, 100 ng/ml TNFα 24 hr, 50 μM FSK", "result": "largely rescued"}
    ]},
    {"compound": "C[C@H](Cc1ccc2c(c1)OC(C(=O)[O-])(C(=O)[O-])O2)NC[C@H](O)c1cccc(Cl)c1.[Na+].[Na+]", "note": "[CL-316,243]", "values": [
      {"measurement": "increase in serum FFA levels", "setting": "diet-induced obese mice", "result": "threefold"},
      {"measurement": "increase in serum glycerol levels", "setting": "diet-induced obese mice", "result": "threefold"},
      {"measurement": "lipolysis (glycerol release)", "setting": "3T3-L1 adipocytes [2]", "result": "increased lipolysis"},
      {"measurement": "increase in Ucp1 mRNA levels", "setting": "3T3-L1 adipocytes [3]", "result": "twofold"}
    ]},
    {"compound": "CC(C)Cn1c(=O)n(C)c(=O)c2[nH]cnc21", "note": "[IBMX]", "values": [
      {"measurement": "cAMP production in response to forskolin in adipocytes expressing IKKε or TBK1", "setting": "3T3-L1 adipocytes [1]; 250 μM IBMX, 50 μM FSK, 15 min", "result": "rescued the full stimulation of cAMP production"}
    ]},
    {"compound": "CC(C)NCC(O)c1ccc(O)c(O)c1", "note": "(centres unmarked) [isoproterenol]", "values": [
      {"measurement": "lipolysis (glycerol release)", "setting": "3T3-L1 adipocytes [2]", "result": "increased lipolysis"},
      {"measurement": "increase in Ucp1 mRNA levels", "setting": "3T3-L1 adipocytes [3]", "result": 1.6, "unit": "fold"}
    ]},
    {"compound": "Poly (I:C)", "values": [
      {"measurement": "stimulation of lipolysis in response to β-adrenergic stimulation", "setting": "3T3-L1 adipocytes [2]; treatment with Poly (I:C)", "result": "reduced"},
      {"measurement": "stimulation of cAMP production in response to β-adrenergic stimulation", "setting": "3T3-L1 adipocytes [1]; treatment with Poly (I:C)", "result": "reduced"},
      {"measurement": "stimulation of phosphorylation in response to β-adrenergic stimulation", "setting": "3T3-L1 adipocytes [4]", "result": "reduced"}
    ]}
  ]
}
